# Test results as given in patent publication US11820766B2, “Monoacylglycerol lipase modulators” (Janssen Pharmaceutica NV, priority 2018, dated 2023).
# Biological target: T1, human MGL from HeLa cells (Homo sapiens, UniProt Q99685)
# T1 construct: combining endogenously expressed MGL from HeLa cells with test compounds; endogenous in cells; host or cells: HeLa cells / cell homogenates
# T1 sequence (Q99685 1-303): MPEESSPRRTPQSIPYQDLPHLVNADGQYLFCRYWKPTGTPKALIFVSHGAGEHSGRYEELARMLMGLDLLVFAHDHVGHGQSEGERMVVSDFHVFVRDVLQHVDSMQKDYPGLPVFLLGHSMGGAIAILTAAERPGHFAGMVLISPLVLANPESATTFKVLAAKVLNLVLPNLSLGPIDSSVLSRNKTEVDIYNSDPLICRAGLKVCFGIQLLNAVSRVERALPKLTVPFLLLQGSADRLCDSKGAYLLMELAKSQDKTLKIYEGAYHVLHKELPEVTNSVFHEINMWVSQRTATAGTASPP
# Experiment: In vitro MGL activity assay: [glycerol-1,3-3H]-oleyl glycerol cleavage by MGL from HeLa cells
# Type: biochemical
# Conditions: 300 nM [Glycerol-1,3-3H]-oleyl glycerol, one hour incubation
# Description: MGL is the predominant hydrolase in HeLa cells/cell homogenates.
row,IC50 [nM],Compound
1,5.56,"C[C@H]1c2nn(C)c(-c3cc(F)c(F)c(F)c3)c2CCN1C(=O)c1cccn2cncc12 [Example 212, (S)-(2,7-Dimethyl-3-(3,4,5-trifluorophenyl)-2,4,5,7-tetrahydro-6H-pyrazolo[3,4-c]pyridin-6-yl)(imidazo[1,5-a]pyridin-8-yl)methanone]"
2,25.6,"C[C@H]1c2nn(C)c(-c3cc(F)c(F)c(F)c3)c2CCN1C(=O)c1cnc2ccccn12 [Example 213, (S)-(2,7-Dimethyl-3-(3,4,5-trifluorophenyl)-2,4,5,7-tetrahydro-6H-pyrazolo[3,4-c]pyridin-6-yl)(imidazo[1,2-a]pyridin-3-yl)methanone]"
3,23.5,"C[C@H]1c2nn(C)c(-c3cc(F)c(F)c(F)c3)c2CCN1C(=O)c1nccc2occc12 [Example 214, (S)-(2,7-Dimethyl-3-(3,4,5-trifluorophenyl)-2,4,5,7-tetrahydro-6H-pyrazolo[3,4-c]pyridin-6-yl)(furo[3,2-c]pyridin-4-yl)methanone]"
4,3.17,"C[C@H]1c2nn(C)c(-c3cc(F)c(F)c(F)c3)c2CCN1C(=O)c1noc2ccccc12 [Example 215, (S)-Benzo[d]isoxazol-3-yl(2,7-dimethyl-3-(3,4,5-trifluorophenyl)-2,4,5,7-tetrahydro-6H-pyrazolo[3,4-c]pyridin-6-yl)methanone]"
5,26.2,"C[C@H]1c2nn(C)c(-c3cc(F)c(F)c(F)c3)c2CCN1C(=O)c1nccc2[nH]ccc12 [Example 216, (S)-(2,7-Dimethyl-3-(3,4,5-trifluorophenyl)-2,4,5,7-tetrahydro-6H-pyrazolo[3,4-c]pyridin-6-yl)(1H-pyrrolo[3,2-c]pyridin-4-yl)methanone]"
6,5.07,"C[C@H]1c2nn(C)c(-c3cc(F)c(F)c(F)c3)c2CCN1C(=O)c1nccc2c1ccn2C [Example 217, (S)-(2,7-Dimethyl-3-(3,4,5-trifluorophenyl)-2,4,5,7-tetrahydro-6H-pyrazolo[3,4-c]pyridin-6-yl)(1-methyl-1H-pyrrolo[3,2-c]pyridin-4-yl)methanone]"
7,35.2,"C[C@H]1c2nn(C)c(-c3cc(F)c(F)c(F)c3)c2CCN1C(=O)c1c[nH]c2ccncc12 [Example 218, (S)-(2,7-Dimethyl-3-(3,4,5-trifluorophenyl)-2,4,5,7-tetrahydro-6H-pyrazolo[3,4-c]pyridin-6-yl)(1H-pyrrolo[3,2-c]pyridin-3-yl)methanone]"
8,28.6,"C[C@H]1c2nn(C)c(-c3cc(F)c(F)c(F)c3)c2CCN1C(=O)c1cn(C)c2ccncc12 [Example 219, (S)-(2,7-Dimethyl-3-(3,4,5-trifluorophenyl)-2,4,5,7-tetrahydro-6H-pyrazolo[3,4-c]pyridin-6-yl)(1-methyl-1H-pyrrolo[3,2-c]pyridin-3-yl)methanone]"
9,130,"C[C@H]1c2nn(C)c(-c3cc(F)c(F)c(F)c3)c2CCN1C(=O)c1cn(C)c2cccnc12 [Example 220, (S)-(2,7-Dimethyl-3-(3,4,5-trifluorophenyl)-2,4,5,7-tetrahydro-6H-pyrazolo[3,4-c]pyridin-6-yl)(1-methyl-1H-pyrrolo[3,2-b]pyridin-3-yl)methanone]"
10,78.9,"C[C@H]1c2nn(C)c(-c3cc(F)c(F)c(F)c3)c2CCN1C(=O)c1cn(C)c2cnccc12 [Example 221, (S)-(2,7-Dimethyl-3-(3,4,5-trifluorophenyl)-2,4,5,7-tetrahydro-6H-pyrazolo[3,4-c]pyridin-6-yl)(1-methyl-1H-pyrrolo[2,3-c]pyridin-3-yl)methanone]"
11,64.7,"C[C@H]1c2nn(C)c(-c3cc(F)c(F)c(F)c3)c2CCN1C(=O)c1cc2cccnc2n1C [Example 222, (S)-(2,7-Dimethyl-3-(3,4,5-trifluorophenyl)-2,4,5,7-tetrahydro-6H-pyrazolo[3,4-c]pyridin-6-yl)(1-methyl-1H-pyrrolo[2,3-b]pyridin-2-yl)methanone]"
12,87.6,"C[C@H]1c2nn(C)c(-c3cc(F)c(F)c(F)c3)c2CCN1C(=O)c1cn(C)c2ncccc12 [Example 223, (S)-(2,7-Dimethyl-3-(3,4,5-trifluorophenyl)-2,4,5,7-tetrahydro-6H-pyrazolo[3,4-c]pyridin-6-yl)(1-methyl-1H-pyrrolo[2,3-b]pyridin-3-yl)methanone]"
13,2.55,"C[C@H]1c2nn(C)c(-c3cc(F)c(F)c(F)c3)c2CCN1C(=O)c1cncc2c1ccn2C [Example 224, (S)-(2,7-Dimethyl-3-(3,4,5-trifluorophenyl)-2,4,5,7-tetrahydro-6H-pyrazolo[3,4-c]pyridin-6-yl)(1-methyl-1H-pyrrolo[2,3-c]pyridin-4-yl)methanone]"
14,0.64,"C[C@H]1c2nn(C)c(-c3cc(F)c(F)c(F)c3)c2CCN1C(=O)c1ccnc2c1ccn2C [Example 225, (S)-(2,7-Dimethyl-3-(3,4,5-trifluorophenyl)-2,4,5,7-tetrahydro-6H-pyrazolo[3,4-c]pyridin-6-yl)(1-methyl-1H-pyrrolo[2,3-b]pyridin-4-yl)methanone]"
15,16.2,"C[C@H]1c2nn(C)c(-c3cc(F)c(F)c(F)c3)c2CCN1C(=O)c1cnc2c(ccn2C)c1 [Example 226, (S)-(2,7-Dimethyl-3-(3,4,5-trifluorophenyl)-2,4,5,7-tetrahydro-6H-pyrazolo[3,4-c]pyridin-6-yl)(1-methyl-1H-pyrrolo[2,3-b]pyridin-5-yl)methanone]"
16,9.51,"C[C@H]1c2nn(C)c(-c3cc(F)c(F)c(F)c3)c2CCN1C(=O)c1cccn2nccc12 [Example 227, (S)-(2,7-Dimethyl-3-(3,4,5-trifluorophenyl)-2,4,5,7-tetrahydro-6H-pyrazolo[3,4-c]pyridin-6-yl)(pyrazolo[1,5-a]pyridin-4-yl)methanone]"
17,48.1,"C[C@H]1c2nn(C)c(-c3cc(F)c(F)c(F)c3)c2CCN1C(=O)c1ccn2nccc2c1 [Example 228, (S)-(2,7-Dimethyl-3-(3,4,5-trifluorophenyl)-2,4,5,7-tetrahydro-6H-pyrazolo[3,4-c]pyridin-6-yl)(pyrazolo[1,5-a]pyridin-5-yl)methanone]"
18,40.7,"C[C@H]1c2nn(C)c(-c3cc(F)c(F)c(F)c3)c2CCN1C(=O)c1cnn2ccncc12 [Example 229, (S)-(2,7-Dimethyl-3-(3,4,5-trifluorophenyl)-2,4,5,7-tetrahydro-6H-pyrazolo[3,4-c]pyridin-6-yl)(pyrazolo[1,5-a]pyrazin-3-yl)methanone]"
19,23,"C[C@H]1c2nn(C)c(-c3cc(F)c(F)c(F)c3)c2CCN1C(=O)c1nn(C)c2ncccc12 [Example 230, (S)-(2,7-Dimethyl-3-(3,4,5-trifluorophenyl)-2,4,5,7-tetrahydro-6H-pyrazolo[3,4-c]pyridin-6-yl)(1-methyl-1H-pyrazolo[3,4-b]pyridin-3-yl)methanone]"
20,124,"C[C@H]1c2nn(C)c(-c3cc(F)c(F)c(F)c3)c2CCN1C(=O)c1cnc2c(cnn2C)c1 [Example 231, (S)-(2,7-Dimethyl-3-(3,4,5-trifluorophenyl)-2,4,5,7-tetrahydro-6H-pyrazolo[3,4-c]pyridin-6-yl)(1-methyl-1H-pyrazolo[3,4-b]pyridin-5-yl)methanone]"
21,5.57,"C[C@H]1c2nn(C(F)F)c(-c3cc(F)c(F)c(F)c3)c2CCN1C(=O)c1ccc2ncccc2c1 [Example 232, (S)-(2-(Difluoromethyl)-7-methyl-3-(3,4,5-trifluorophenyl)-2,4,5,7-tetrahydro-6H-pyrazolo[3,4-c]pyridin-6-yl)(quinolin-6-yl)methanone]"
22,550,"C[C@@H]1c2nn(C(F)F)c(-c3cc(F)c(F)c(F)c3)c2CCN1C(=O)c1ccc2ncccc2c1 [Example 233, (R)-(2-(Difluoromethyl)-7-methyl-3-(3,4,5-trifluorophenyl)-2,4,5,7-tetrahydro-6H-pyrazolo[3,4-c]pyridin-6-yl)(quinolin-6-yl)methanone]"
23,4.71,"C[C@H]1c2nn(C)c(-c3cc(F)c(F)c(F)c3)c2CCN1C(=O)c1ccc2ncccc2c1 [Example 234, (S)-(2,7-Dimethyl-3-(3,4,5-trifluorophenyl)-2,4,5,7-tetrahydro-6H-pyrazolo[3,4-c]pyridin-6-yl)(quinolin-6-yl)methanone]"
24,3660,"C[C@@H]1c2nn(C)c(-c3cc(F)c(F)c(F)c3)c2CCN1C(=O)c1ccc2ncccc2c1 [Example 235, (R)-(2,7-Dimethyl-3-(3,4,5-trifluorophenyl)-2,4,5,7-tetrahydro-6H-pyrazolo[3,4-c]pyridin-6-yl)(quinolin-6-yl)methanone]"
25,5.79,"C[C@H]1c2nn(C)c(-c3cc(F)c(F)c(F)c3)c2CCN1C(=O)c1cccc2cccnc12 [Example 236, (S)-(2,7-Dimethyl-3-(3,4,5-trifluorophenyl)-2,4,5,7-tetrahydro-6H-pyrazolo[3,4-c]pyridin-6-yl)(quinolin-8-yl)methanone]"
26,1.89,"C[C@H]1c2nn(C)c(-c3cc(F)c(F)c(F)c3)c2CCN1C(=O)c1nccc2ccccc12 [Example 237, (S)-(2,7-Dimethyl-3-(3,4,5-trifluorophenyl)-2,4,5,7-tetrahydro-6H-pyrazolo[3,4-c]pyridin-6-yl)(isoquinolin-1-yl)methanone]"
27,2.69,"C[C@H]1c2nn(C)c(-c3cc(F)c(F)c(F)c3)c2CCN1C(=O)c1ccnc2c(F)cccc12 [Example 238, (S)-(2,7-Dimethyl-3-(3,4,5-trifluorophenyl)-2,4,5,7-tetrahydro-6H-pyrazolo[3,4-c]pyridin-6-yl)(8-fluoroquinolin-4-yl)methanone]"
28,3.74,"Cc1cc(C(=O)N2CCc3c(nn(C)c3-c3cc(F)c(F)c(F)c3)[C@@H]2C)c2ccccc2n1 [Example 239, (S)-(2,7-Dimethyl-3-(3,4,5-trifluorophenyl)-2,4,5,7-tetrahydro-6H-pyrazolo[3,4-c]pyridin-6-yl)(2-methylquinolin-4-yl)methanone]"
